Key:
[1] = system: mouse myoblasts (C2C12); assay: Atrophy of mouse myoblasts (C2C12) induced by C26 cell supernatant, myotube diameter by HE staining; type: cell-based; details: 48 hours treatment, C26 supernatant-induced C2C12 myotubes
Protocol: C2C12 cells were inoculated in 24-well plates. The culture system was high-glucose DMEM medium containing 10% FBS with 1% penicillin-streptomycin. The plates were placed in a 5% CO2, 37° C. environment. When the cell growth density reached 50%-60%, the culture system was replaced with high-glucose DMEM culture medium containing 2% HS with 1% penicillin-streptomycin. Fresh 2% HS differentiation medium was replaced every 48 hours, and the cells were differentiated into mature cells on the 5th or 6th day. Additionally, C26 cells were inoculated in T75 flasks. The culture system was high-glucose DMEM medium containing 10% FBS with 1% penicillin-streptomycin. The flasks were placed in a 5% CO2, 37° C. environment. When subculturing, the cells were subcultured at 6 million cells/flask. After culturing in 20 ml of culture medium for 48 hours, the supernatant was collected and centrifuged at 1000 rpm for 3 mins. The supernatant was collected and centrifuged at 4000 rpm for 10 mins to obtain the C26 supernatant. The C26 supernatant and 2% HS differentiation solution were mixed at a ratio of 1:1 (volume ratio) as the muscle atrophy induction solution. Except for the control group in which 2% HS differentiation solution was added, for the other groups, an equivalent amount of muscular atrophy induction solution was added. One group was used as the model group, and the other groups were used as the treatment and experimental groups.
The diameter of myotubes after differentiation of mouse myoblasts (C2C12) was evaluated by using the diameter measurement method. The method for measuring the diameter of myotubes was as follows: after 48 hours of treatment, the myotubes were fixed with a fixative (anhydrous ethanol: formaldehyde: glacial acetic acid (volume ratio)=20:2:1) for more than 1 h and stained. The staining method used in the experiment is hematoxylin-eosin staining, referred to as HE staining for short. Hematoxylin stain is alkaline and positively charged, and it can easily bind to the negatively charged and acidic deoxyribonucleic acid (DNA) in the cell nucleus through ionic bonds to stain it blue; eosin is an acidic dye that dissociates into negatively charged anions in water, and it can easily bind to the positively charged amino groups of proteins in the cytoplasm to stain it red. The stained cells were placed under a high-power microscope to take pictures (magnification: 200 times), and the diameter of myotube cells was statistically analyzed using image J software. The muscle atrophy reversal rate was calculated according to the following formula: Muscle atrophy reversal rate=(average value of myotubes in the treatment group-average value of myotubes in the model group)/(average value of myotubes in the control group-average value of myotubes in the model group)×100%

[2] = target: ActRIIB (Homo sapiens, UniProt Q13705); assay: ActRIIB inhibitory activity, ADP-Glo assay kit; type: biochemical; details: ATP 25 μM, substrate 0.1 mg/mL, ActRIIB 20.0 ng/μL
Sequence of ActRIIB (Q13705 19-512): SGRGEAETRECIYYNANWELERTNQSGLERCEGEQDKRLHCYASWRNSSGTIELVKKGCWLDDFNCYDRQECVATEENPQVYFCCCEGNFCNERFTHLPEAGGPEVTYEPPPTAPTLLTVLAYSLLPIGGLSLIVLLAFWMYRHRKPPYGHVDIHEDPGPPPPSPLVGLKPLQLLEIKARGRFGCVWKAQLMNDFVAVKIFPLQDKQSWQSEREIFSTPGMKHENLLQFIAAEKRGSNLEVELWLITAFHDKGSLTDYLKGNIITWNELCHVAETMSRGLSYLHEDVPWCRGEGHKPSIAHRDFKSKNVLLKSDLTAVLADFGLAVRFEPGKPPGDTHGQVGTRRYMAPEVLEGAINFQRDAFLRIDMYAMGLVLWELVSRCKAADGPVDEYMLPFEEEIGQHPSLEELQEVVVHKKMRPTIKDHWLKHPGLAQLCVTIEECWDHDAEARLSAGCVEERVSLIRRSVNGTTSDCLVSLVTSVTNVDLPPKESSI
Protocol: The ATP and substrate concentrations recommended by the ADP-Glo™ assay kit were used, which were 25 μM and 0.1 mg/mL, respectively, and a series of isocratic final ActRIIB concentrations were set up, which were 0, 0.47, 0.94, 1.88, 3.75, 7.5, 15, 30, and 60 ng/μL, respectively. According to the […] values obtained in the experiment, an ActRIIB concentration titration curve was drawn. The ActRIIB concentrations corresponding to the ratio of the signal value to the background value (i.e., signal-to-background ratio, SBR) in the range of 5-10 times are suitable for screening compounds for inhibition of ActRIIB activity. From the ActRIIB concentration titration curve, the final ActRIIB concentrations corresponding to SB5 and SB10 were calculated to be 14.9 and 23.7 ng/μL, respectively. Finally, a final concentration of 20.0 ng/μL was selected as the experimental concentration for screening compounds for their inhibitory activity against ActRIIB. The inhibitory efficiency of 7-azaindole compounds on ActRIIB was detected at concentrations of 0.1, 1, 10, and 100 nM, respectively.

[3] = Mus musculus, read-out: Myotube atrophy reversal rate

IC50 [2] [nM] | Compound | inhibition at 5 µM [1, 3] [%] | inhibition at 10 µM [1, 3] [%] | further results
1.86 | Cn1nccc1-c1c[nH]c2ncc(-c3ccc(N4CCOCC4)cc3)cc12 [Compound 16, 3-(2-methylpyrazol-3-yl)-5-[4-(1,4-oxazacyclohexan-4-yl)phenyl]-1H-pyrrolo[2,3-b]pyridine] | 78 |  | 
12.6 | Cn1nccc1-c1c[nH]c2ncc(-c3ccc(OCCN4CCCCC4)cc3)cc12 [Compound 13, 5-(4-{[2-(hexahydropyridin-1-yl)ethyl]oxy}phenyl)-3-(2-methylpyrazol-3-yl)-1H-pyrrolo[2,3-b]pyridine] |  | 86.2 | 
 | c1cc(-c2c[nH]c3ncc(-c4ccc(OCCN5CCOCC5)cc4)cc23)n[nH]1 [Compound 20, 3-(1H-pyrazol-3-yl)-5-(4-[[2-(1,4-oxazacyclohexan-4-yl)ethyl]oxy]phenyl)-1H-pyrrolo[2,3-b]pyridine] |  |  | Myotube atrophy reversal rate ([1]; 1.25 μM): 54.04%
3.61 | Cn1nccc1-c1c[nH]c2ncc(-c3ccc(N4CCNCC4)cc3)cc12 [Compound 17, 3-(2-methylpyrazol-3-yl)-5-[4-(piperazin-1-yl)phenyl]-1H-pyrrolo[2,3-b]pyridine] | 97.7 |  | inhibition at 1.25 µM ([1]; Mus musculus, 1.25 μM, read-out: Myotube atrophy reversal rate): 39.9%; inhibition at 2.5 µM [1, 3]: 65%
24.2 | Cc1noc(C)c1-c1c[nH]c2ncc(-c3ccc(N4CCN(C)CC4)cc3)cc12 [Compound 19, 3-(3,5-dimethylisoxazol-4-yl)-5-[4-(4-methylpiperazin-1-yl)phenyl]-1H-pyrrolo[2,3-b]pyridine] | 69.4 |  | 
78.9 | CCN(CC)CCOc1ccc(-c2cnc3[nH]cc(-c4ccnn4C)c3c2)cc1 [Compound 18, 5-(4-{[2-(diethylamino)ethyl]oxy}phenyl)-3-(2-methylpyrazol-3-yl)-1H-pyrrolo[2,3-b]pyridine] |  | 84.5 | 
1.2 | Cc1n[nH]c(C)c1-c1c[nH]c2ncc(-c3ccc(N4CCN(C)CC4)cc3)cc12 [Compound 5, 3-(3,5-dimethyl-1H-pyrazol-4-yl)-5-[4-(4-methylpiperazin-1-yl)phenyl]-1H-pyrrolo[2,3-b]pyridine] | 79.5 |  | 
2.6 | CC(C)n1nccc1-c1c[nH]c2ncc(-c3ccc(N4CCN(C)CC4)cc3)cc12 [Compound 8, 5-[4-(4-methylpiperazin-1-yl)phenyl]-3-[2-(prop-2-yl)pyrazol-3-yl]-1H-pyrrolo[2,3-b]pyridine] | 62.2 |  | 
58.6 | Cc1n[nH]cc1-c1c[nH]c2ncc(-c3ccc(N4CCN(C)CC4)cc3)cc12 [Compound 4, 3-(3-methyl-1H-pyrazol-4-yl)-5-[4-(4-methylpiperazin-1-yl)phenyl]-1H-pyrrolo[2,3-b]pyridine] | 63.6 |  | 
20.4 | CN1CCN(c2ccc(-c3cnc4[nH]cc(-c5cn[nH]c5)c4c3)cc2)CC1 [Compound 1, 3-(1H-pyrazol-4-yl)-5-[4-(4-methylpiperazin-1-yl)phenyl]-1H-pyrrolo[2,3-b]pyridine] |  |  | inhibition at 2.5 µM [1, 3]: 63.5%
 | CN1CCN(C(=O)c2ccc(-c3cnc4[nH]cc(-c5ccnn5C)c4c3)cc2)CC1 [Compound 14, (4-methylpiperazin-1-yl) {4-[3-(2-methylpyrazol-3-yl)-1H-pyrrolo[2,3-b]pyridin-5-yl]phenyl}ketone] |  | 57 | 
 | CN1CCN(Cc2ccc(-c3cnc4[nH]cc(-c5ccnn5C)c4c3)cc2)CC1 [Compound 15, 5-{4-[(4-methylpiperazin-1-yl)methyl]phenyl}-3-(2-methylpyrazol-3-yl)-1H-pyrrolo[2,3-b]pyridine] | 99.1 | 109 | inhibition at 2.5 µM [1, 3]: 47.5%
 | Cn1nccc1-c1c[nH]c2ncc(-c3ccc(OCCN4CCOCC4)cc3)cc12 [Compound 12, 3-(2-methylpyrazol-3-yl)-5-(4-{[2-(1,4-oxazacyclohexan-4-yl)ethyl]oxy}phenyl)-1H-pyrrolo[2,3-b]pyridine] | 73.8 |  | 

Source: US20260193255A1, “7-AZAINDOLE COMPOUNDS, PREPARATION METHOD THEREFOR, AND USE THEREOF” (Fudan University, priority 2022, published 2026)
